Test results taken from patent EP1992346A1, “PHARMACEUTICAL COMPOSITIONS CONTAINING COMBINED PLATELET AGGREGATION INHIBITING SUBSTANCES FOR USE IN THE TREATMENT AND PREVENTION OF ISCHEMIC VASCULAR EVENTS” (WORLD-TRADE IMPORT-EXPORT, WTIE, A.G., priority 2005, dated 2007).

How the values were obtained:
platelet aggregation = details: cited from earlier work
[1] = cited from earlier work
[2] = system: U46619-induced platelet aggregation; details: double blind, 10-day study, 20 healthy volunteers; plasma rich in platelets
Procedure: It was a double blind, 10-day duration study that was performed in 20 healthy volunteers with an age ranging from 26 to 40 years old. The platelet activation was measured by changes in light transmission of plasma rich in platelets stimulated by a synthetic analogue of TXA2, U46619.

[3] = cited from earlier work; remark: listed apart in the source
[4] = radioactively marked Clopidogrel, within a five-day period

For `COC(=O)[C@H](c1ccccc1Cl)N1CCc2sccc2C1` [Clopidogrel], the “time for platelet aggregation and bleeding-time to return to basal level” value (platelet aggregation; after the treatment discontinuation) is given as “five”, the platelet aggregation inhibited (platelet aggregation; in balanced conditions, 75 mg per day) is given as 40-60% and the activity in vitro (platelet aggregation; in vitro, requires hepatic activation) is given as “inactive in vitro”. The “time to maximum inhibition of platelet aggregation” value (platelet aggregation; iterative doses of 75 mg per day) was 3 to 7 days, the “inhibition of platelet aggregation” value (platelet aggregation; two hours after a single oral dose) was “already observed an inhibition of platelet aggregation” and the “reversibly bound to plasmatic proteins” value [1] was 98%. For the same compound, the “U46619 stimulated platelet aggregation” value [2] was “significantly inhibited”, the “time to maximum plasmatic concentrations of primary metabolite” value ([3]; after a dose of 75 mg) was “one” and the plasmatic half-life ([3]; in vivo) was “about 8 hours”. For the same compound, the “inactive primary metabolite (carboxylic acid) as share of metabolites circulating in the plasma” value ([3]; oral) was “about 85%”, the absorption ([3]; oral, not significantly affected by food) was 50% and the eliminated through feces [3, 4] was 46%. For the same compound, the eliminated through urine [3, 4] was “About 50%” and the “plasmatic concentrations of the unaltered drug” value ([3]; two hours after an oral dose) was “no longer detectable”.
